Structures can show the parent of a compound that is named as a salt.

Assay [1] deals with NCI-H292 lung cancer cells. The assay can be described thus: FDA drug screening, complete media vs cholesterol-free media with simvastatin (TABLE 2). The following applies: for Cholesterol-free media + simvastatin (0.04 μM) / Complete Media: NCI-H292 cells; for Difference: >0 enhanced anti-cancer activity, about 0 neutral, <0 antagonist. In kind it is cell-based, human.
The test system of assay [2] is NCI-H292 lung cancer cells. The assay can be described thus: FDA drug screening, complete media vs cholesterol-free media without statin (TABLE 1). In kind it is cell-based, human. The settings on record: for Difference: about 0 neutral.
Where [3] appears, read: cholesterol-free media with simvastatin 0.04 μM, cell growth value in FDA drug screen.
[4] abbreviates: complete media, cell growth value in FDA drug screen.
The mark [5] stands for this setting: complete media minus cholesterol-free media + simvastatin.
[6] abbreviates: NCI-H292 cells, cholesterol-free media without statin.
[7] abbreviates: complete vs cholesterol-free media, greater than 0 enhanced anti-cancer activity, below 0 antagonists.
[8] abbreviates: drug in cholesterol-free media with simvastatin 0.04 μM.
Setting [9] is: complete media vs cholesterol-free media + simvastatin (0.04 μM).
[10] abbreviates: FDA drug library screen, cholesterol-free media with simvastatin 0.04 μM.
Setting [11] is: Complete minus Cholesterol-free, >0 enhanced anti-cancer activity, <0 antagonist.
The mark [12] stands for this setting: NCI-H292 cells, cholesterol-free media without statin, FDA drug library screen.
[13] abbreviates: NCI-H292 cells, complete media, FDA drug library screen.
[14] abbreviates: FDA library drug in cholesterol-free media with simvastatin 0.04 μM.
[15] abbreviates: FDA library drug in complete media.

For `CCC(CC)O[C@@H]1C=C(C(=O)O)C[C@H](N)[C@H]1NC(C)=O` [Oseltamivir acid], in assay [1] (setting [3]), the “Cholesterol-free media + simvastatin (0.04 μM)” value worked out at 0.944. For the same compound, the “Complete Media” value in assay [1] (setting [4]) is on record as 1.053. The figures for the Difference in assay [1] (setting [5]) and in assay [2] (setting [7]) were 0.11 and −0.44, respectively. Moreover, in assay [2] (setting [6]), the Cholesterol-free worked out at 1.419. The Complete in assay [2] (NCI-H292 cells, complete media) came to 0.9754.
As to `CC(=O)NCCCCCC(=O)O` [6-Acetamidohexanoic acid], the “Cholesterol-free media + simvastatin (0.04 μM)” value in assay [1] (setting [8]) worked out at 1.04. The “Complete Media” value in assay [1] (drug in complete media) came out at 0.7847. In addition, the values for the Difference in assay [1] (setting [9]) and in assay [2] (setting [7]) were −0.26 and −0.34, respectively. Besides, in assay [2] (setting [6]), the Cholesterol-free amounted to 1.348. The Complete in assay [2] (NCI-H292 cells, complete media) amounted to 1.01.
Consider `OCCOCCN1CCN(C(c2ccccc2)c2ccc(Cl)cc2)CC1` (centres unmarked) [Hydroxyzine (dihydrochloride)], for which the “Cholesterol-free media + simvastatin (0.04 μM)” value in assay [1] (setting [10]) turned out to be 0.6407. Besides, the Difference was 0.53 in assay [1] (setting [5]) and −0.35 in assay [2] (setting [7]). The Cholesterol-free in assay [2] (setting [6]) was 1.474. Further, the Complete in assay [2] (NCI-H292 cells, complete media) came to 1.128.
Regarding `CCOc1nc2cccc(C(=O)O)c2n1Cc1ccc(-c2ccccc2-c2nnn[nH]2)cc1` [Candesartan], the “Cholesterol-free media + simvastatin (0.04 μM)” value in assay [1] (setting [8]) is listed as 1.101. For the same compound, in assay [1] (drug in complete media), the “Complete Media” value is listed as 0.8684. In addition, the Difference was −0.23 in assay [1] (setting [9]) and 0.02 in assay [2] (setting [11]). Moreover, in assay [2] (setting [12]), the Cholesterol-free is listed as 0.9494. In assay [2] (setting [13]), this compound came in with a Complete of 0.9741.
In the case of `Cn1nnnc1SCC1=C(C(=O)[O-])N2C(=O)[C@@H](NC(=O)[C@H](O)c3ccccc3)[C@H]2SC1.[Na+]` [Cefamandole (sodium)], the “Cholesterol-free media + simvastatin (0.04 μM)” value in assay [1] (setting [14]) amounted to 2.169. The “Complete Media” value in assay [1] (setting [15]) was 1.429. The Difference in assay [1] (setting [9]) is reported as −0.74; in assay [2] (Complete minus Cholesterol-free, greater than 0 enhanced anti-cancer activity, below 0 antagonist) it was −0.12. The Cholesterol-free in assay [2] (NCI-H292 cells, FDA drug library screen, cholesterol-free media without statin) is 1.243. The compound further displayed a Complete in assay [2] (NCI-H292 cells, FDA drug library screen, complete media) of 1.12.
For `CC1=C(C(=O)O)N2C(=O)[C@@H](NC(=O)[C@H](N)c3ccccc3)[C@H]2SC1` [Cephalexin], the “Cholesterol-free media + simvastatin (0.04 μM)” value in assay [1] (setting [14]) is 1.341. Besides, the “Complete Media” value in assay [1] (setting [15]) is 0.9798. Further, the Difference in assay [1] (setting [9]) was −0.36; in assay [2] (setting [7]) it was −0.33. Further, the Cholesterol-free in assay [2] (setting [6]) came to 1.173. In assay [2] (NCI-H292 cells, complete media), this compound gave a Complete of 0.8408.
As for `CC[C@H](C)C(=O)O[C@H]1C[C@H](O)C=C2C=C[C@H](C)[C@H](CC[C@@H](O)C[C@@H](O)CC(=O)[O-])[C@H]21.[Na+]` [Pravastatin (sodium)], the “Cholesterol-free media + simvastatin (0.04 μM)” value in assay [1] (setting [3]) is given as 1.193. For the same compound, in assay [1] (setting [4]), the “Complete Media” value is 1.235. Besides, the Difference is given as 0.04 in assay [1] (setting [5]) and −0.48 in assay [2] (Complete minus Cholesterol-free, greater than 0 enhanced anti-cancer activity, below 0 antagonists). In addition, in assay [2] (NCI-H292 cells in cholesterol-free media without statin), the Cholesterol-free is recorded as 1.713. This compound yielded a Complete in assay [2] (NCI-H292 cells in complete media) of 1.238.
Consider `CC(C)COc1ccc(CNC(=O)N(Cc2ccc(F)cc2)C2CCN(C)CC2)cc1` [Pimavanserin], for which the “Cholesterol-free media + simvastatin (0.04 μM)” value in assay [1] (setting [10]) came to 0.8784. In addition, the “Complete Media” value in assay [1] (FDA drug library screen, complete media) is given as 1.133. Also, the Difference was found to be 0.25 in assay [1] (setting [5]) and 0.14 in assay [2] (complete vs cholesterol-free media, >0 enhanced anti-cancer activity, <0 antagonist). The compound also gave a Cholesterol-free in assay [2] (setting [12]) of 0.9868. The Complete in assay [2] (setting [13]) amounted to 1.126.
On to `COc1ccc(C(=O)NCc2ccc(OCCN(C)C)cc2)cc1OC` [Itopride (hydrochloride)], for which, in assay [1] (setting [14]), the “Cholesterol-free media + simvastatin (0.04 μM)” value was determined as 1.711. In assay [1] (setting [15]), the “Complete Media” value came to 1.056. The figures for the Difference in assay [1] (setting [9]) and in assay [2] (setting [11]) were −0.65 and −0.04, respectively. For the same compound, the Cholesterol-free in assay [2] (setting [12]) was found to be 1.141. Besides, the Complete in assay [2] (setting [13]) is given as 1.104.

The record behind these values is patent publication US20250144067A1, “PERSONALIZED STARVATION THERAPY FOR CANCER” (Faeth Therapeutics, Inc., priority 2021, published 2025).
